US12599660B2, “Therapeutic RNA for HPV-positive cancer” (priority 2020, dated 2026)

System: TC-1 luc tumors
Assay: TC-1 luc tumor model with E7 RNA-LPX and cisplatin chemotherapy: tumor growth and survival
Format: in vivo, C57BL/6 mice
Settings: 40 μg RNA-LPX day 16, 80 μg cisplatin or PBS i.p. day 22 and 28
Protocol: For therapeutic tumor experiments, C57BL/6 mice were injected with 1×10^5 TC-1 or TC-1 luc tumor cells and 5×10^5 C3 tumor cells subcutaneously into to the right flank. Tumor growth was measured unblinded with a caliper every three to four days and tumor volumes calculated by (a^2 x b)/2 (a, width; b, length). Mice were immunized intravenously with 40 μg E7 or control (OVA) RNA-LPX. Arrows in vaccination schemes indicate immunization. Mice were randomized according to their tumor size prior RNA-LPX immunization. The orthovoltage X-ray source XRAD320 (Precision X-Ray Inc.) was used for tumor irradiation, irradiating tumors locally with different doses at a dose rate of 0.47 Gy/min. Biological effective doses were calculated using the formula
In some experiments, mice received 80 μg cisplatin chemotherapy or PBS intraperitoneal (i.p.) twice after RNA-LPX vaccination.
For Example 9, Statistical analysis was performed with GraphPad PRISM 9. For tumor growth analysis, two-way analysis of variance (ANOVA) was performed and when determined significant (p<0.05), Tukey's multiple comparison test run.

N.N.[Cl][Pt][Cl] [Cisplatin, cis-diamminedichloroplatinum (II)]
tumor growth: only slightly improved tumor growth
